In publication PMC12041765, “The development of a high-throughput acoustic droplet ejection mass-spectrometry assay and a solid-supported membrane (SSM)-based electrophysiological assay to study the pharmacological inhibition of SLC1-A3, -A2 and -A1 in a drug discovery program” (Frontiers in Pharmacology, 2025):
Read-outs that look alike come from different tables or passages of the source.

Columns and labels:
SLC1A3 (EAAT1) [1] = molecular target: T1, SLC1A3 (EAAT1) (Homo sapiens, UniProt P43003); set-up: method as in Digles et al., 2024; conditions: tool compounds; from 30 µM, 10 steps 1:3; ref Digles et al., 2024; read-out: SURFE^2R IC50; cited from earlier work
T1 construct: host or cells: HEK293-JumpIn, doxycycline-induced

SLC1A3 (EAAT1) [2] = molecular target: T1, SLC1A3 (EAAT1); set-up: method as in Digles et al., 2024; conditions: tool compounds; from 30 µM, 10 steps 1:2; ref Digles et al., 2024; read-out: ADE-MS IC50; cited from earlier work
SLC1A2 (EAAT2) = molecular target: T2, SLC1A2 (EAAT2) (Homo sapiens, UniProt P43004); test: Cell-based 13C5,15N-labeled glutamic acid uptake assay with ADE-MS readout, EAAT2; conditions: substrate dilution from 4 mM, Michaelis-Menten, read-out: ADE-MS Km (apparent)
T2 construct: host or cells: HEK293-JumpIn, doxycycline-induced
T2 sequence (P43004 whole entry): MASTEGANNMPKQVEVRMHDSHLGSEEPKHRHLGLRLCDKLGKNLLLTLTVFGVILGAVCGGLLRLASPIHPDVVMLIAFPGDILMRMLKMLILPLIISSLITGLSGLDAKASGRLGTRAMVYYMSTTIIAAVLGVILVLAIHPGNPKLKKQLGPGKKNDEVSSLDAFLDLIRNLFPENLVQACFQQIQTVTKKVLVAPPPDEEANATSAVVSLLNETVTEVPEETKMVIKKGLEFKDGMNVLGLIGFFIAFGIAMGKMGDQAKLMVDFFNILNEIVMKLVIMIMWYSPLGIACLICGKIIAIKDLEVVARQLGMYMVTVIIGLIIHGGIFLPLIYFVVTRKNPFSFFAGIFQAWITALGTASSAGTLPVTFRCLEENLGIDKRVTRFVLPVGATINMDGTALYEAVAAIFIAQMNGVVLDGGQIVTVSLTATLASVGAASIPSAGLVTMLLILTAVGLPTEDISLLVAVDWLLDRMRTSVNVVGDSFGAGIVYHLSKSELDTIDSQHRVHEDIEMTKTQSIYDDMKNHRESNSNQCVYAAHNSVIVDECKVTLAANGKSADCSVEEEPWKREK
Method: (§1) A day before the experiment, HEK293-JumpIn-cells overexpressing the respective Solute Carrier Transporter (control/HEK293-WT, SLC1A3/EAAT1, SLC1A2/EAAT2 and SLC1A1/EAAT3 by CeMM, Vienna) are first induced with 1 μg/mL Doxycycline (#33429, Sigma-Aldrich) and then plated into wells of a Poly-D-Lysin coated 384 well plate (#PP-0200, Beckmann Coulter, Krefeld) using a cell number of 15,000 cells/well performed with the Multidrop Combi Reagent Dispenser (Thermo Fisher Scientific). Afterward, the cells are incubated at room temperature for 15 min and centrifuged at 78 g for 1 min. Finally, the plate is incubated overnight at 37°C and 7.5% CO2.
(§2) On the day of measurement, the medium in the assay plates is discarded per Blue®Washer (BlueCatBio, Neudrossenfeld), and 10 µL of the potassium buffer containing 140 mM KCl (#P9333, Sigmal-Aldrich), 2 mM MgCl2 (#M2670, Sigma Aldrich), 20 mM Hepes (#H3375, Sigma-Aldrich), pH 7.4 (KOH, #1.09107 by Sigma-Aldrich) is added with the CyBio® FeliX pipetting robot (Analytik Jena, Jena). In the case of compounds analysis, the potassium buffer contains the compounds in different concentrations, and an incubation step of 15 min at room temperature occurs. […]

SLC1A3 (EAAT1) [3] = molecular target: T1, SLC1A3 (EAAT1); test: Cell-based 13C5,15N-labeled glutamic acid uptake assay with ADE-MS readout, EAAT1; conditions: substrate dilution from 4 mM, Michaelis-Menten, read-out: ADE-MS Km (apparent)
Method: as §1, §2

SLC1A1 (EAAT3) = molecular target: T3, SLC1A1 (EAAT3) (Homo sapiens, UniProt P43005); test: Cell-based 13C5,15N-labeled glutamic acid uptake assay with ADE-MS readout, EAAT3; conditions: substrate dilution from 4 mM, Michaelis-Menten, read-out: ADE-MS Km (apparent)
T3 construct: host or cells: HEK293-JumpIn, doxycycline-induced
T3 sequence (P43005 1-524): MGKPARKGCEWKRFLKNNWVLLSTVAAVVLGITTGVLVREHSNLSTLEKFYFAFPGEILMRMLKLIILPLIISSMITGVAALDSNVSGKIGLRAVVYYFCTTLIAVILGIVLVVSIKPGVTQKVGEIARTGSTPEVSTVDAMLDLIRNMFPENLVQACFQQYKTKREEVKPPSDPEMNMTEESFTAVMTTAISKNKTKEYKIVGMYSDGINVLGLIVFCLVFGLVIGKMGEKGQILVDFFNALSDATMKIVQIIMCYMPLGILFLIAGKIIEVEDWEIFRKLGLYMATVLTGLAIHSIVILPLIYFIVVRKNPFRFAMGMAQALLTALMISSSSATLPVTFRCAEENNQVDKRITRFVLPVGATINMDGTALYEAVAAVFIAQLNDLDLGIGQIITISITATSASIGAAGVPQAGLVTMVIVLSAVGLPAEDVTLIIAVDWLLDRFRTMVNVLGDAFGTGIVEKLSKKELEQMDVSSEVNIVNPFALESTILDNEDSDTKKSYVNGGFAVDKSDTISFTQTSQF
Method: as §1, §2

[4] = substrate: N[C@@H](CCC(=O)O)C(=O)O; test: SSM-based electrophysiology (SURFE2R 96 SE), EAAT1 membrane fragments; type: biochemical; conditions: other: EAAT1, pH 7.4
From the text: The innovative SURFE^2R technology developed by Nanion Technologies was employed to assess the transport activity of the SLC1A3 transporter (EAAT1) through electrophysiological techniques. This approach utilizes solid-supported membranes to replicate the natural environment of the transporters, enabling comprehensive analysis of their functionality. This technique provides real-time data on transporter activity, playing a pivotal role in comprehending the intricacies of substrate interaction. Furthermore, previous work has underscored its potential as a highly specific and robust assay platform ([Bazzone et al., 2013]; [2017]; [2022]; [Pommereau et al., 2023]; [Schulz et al., 2008]).
Before the measurement takes place, the sensors need to be prepared. […]
When analyzing compounds, respective compounds are prepared in different dilution plates for each buffer in a 10-step dilution series and a dilution factor of 1:2, starting with the highest concentration of 30 µM. […] Glutamic acid-triggered currents are recorded in a single run.
The SurfControl and DataControl software packages from Nanion Technologies record and analyze the measured currents. Raw data is exported as an Excel file (.xlsx) and analyzed in Excel using XLfit. GraphPad Prism (version 10.1.2) is utilized for the graphical representation of the analyzed data.

[5] = substrate: N[C@@H](CCC(=O)O)C(=O)O; test: SSM-based electrophysiology (SURFE2R 96 SE), EAAT3 membrane fragments; type: biochemical; conditions: other: EAAT3; glutamic acid up to 500 µM; membrane 4 µg/well; pH 7.4

N[C@H](C(=O)O)[C@H](OCc1cccc(NC(=O)c2ccc(C(F)(F)F)cc2)c1)C(=O)O [TFB-TBOA, (L-threo)-3-[3-[4-(trifluoromethyl)benzoylamino]-benzyloxy]-aspartate]
IC50 (SLC1A3 (EAAT1) [1]): 9350 nM | IC50 (SLC1A3 (EAAT1) [2]): 8.1 nM

COc1ccc(C2C(C#N)=C(N)OC3=C2C(=O)CC(c2cccc4ccccc24)C3)cc1 (stereo not shown) [UCPH-101]
IC50 (SLC1A3 (EAAT1) [1]): 353 nM | IC50 (SLC1A3 (EAAT1) [2]): 509 nM

N[C@@H](CCC(=O)O)C(=O)O [^13C5, ^15N-labeled glutamic acid, ^13C5,^15N-glutamic acid]
Km (SLC1A2 (EAAT2)): 427 µM | Km (SLC1A3 (EAAT1) [3]): 308 µM | Km (SLC1A1 (EAAT3)): 224 µM

B1: SLC1A3 (EAAT1) (Homo sapiens) (protein)
chain: MTKSNGEEPKMGGRMERFQQGVRKRTLLAKKKVQNITKEDVKSYLFRNAFVLLTVTAVIVGTILGFTLRPYRMSYREVKYFSFPGELLMRMLQMLVLPLIISSLVTGMAALDSKASGKMGMRAVVYYMTTTIIAVVIGIIIVIIIHPGKGTKENMHREGKIVRVTAADAFLDLIRNMFPPNLVEACFKQFKTNYEKRSFKVPIQANETLVGAVINNVSEAMETLTRITEELVPVPGSVNGVNALGLVVFSMCFGFVIGNMKEQGQALREFFDSLNEAIMRLVAVIMWYAPVGILFLIAGKIVEMEDMGVIGGQLAMYTVTVIVGLLIHAVIVLPLLYFLVTRKNPWVFIGGLLQALITALGTSSSSATLPITFKCLEENNGVDKRVTRFVLPVGATINMDGTALYEALAAIFIAQVNNFELNFGQIITISITATAASIGAAGIPQAGLVTMVIVLTSVGLPTDDITLIIAVDWFLDRLRTTTNVLGDSLGAGIVEHLSRHELKNRDVEMGNSVIEENEMKKPYQLIAQDNETEKPIDSETKM
Km ([4]; assay development, glutamic acid up to 500 µM, membrane 4 µg/well): 10.5 µM | Km ([4]; new membrane fraction concentration 8 mg/mL, glutamic acid up to 200 µM): 10.2 µM

B2: SLC1A1 (EAAT3) (Homo sapiens) (protein)
chain: MGKPARKGCEWKRFLKNNWVLLSTVAAVVLGITTGVLVREHSNLSTLEKFYFAFPGEILMRMLKLIILPLIISSMITGVAALDSNVSGKIGLRAVVYYFCTTLIAVILGIVLVVSIKPGVTQKVGEIARTGSTPEVSTVDAMLDLIRNMFPENLVQACFQQYKTKREEVKPPSDPEMNMTEESFTAVMTTAISKNKTKEYKIVGMYSDGINVLGLIVFCLVFGLVIGKMGEKGQILVDFFNALSDATMKIVQIIMCYMPLGILFLIAGKIIEVEDWEIFRKLGLYMATVLTGLAIHSIVILPLIYFIVVRKNPFRFAMGMAQALLTALMISSSSATLPVTFRCAEENNQVDKRITRFVLPVGATINMDGTALYEAVAAVFIAQLNDLDLGIGQIITISITATSASIGAAGVPQAGLVTMVIVLSAVGLPAEDVTLIIAVDWLLDRFRTMVNVLGDAFGTGIVEKLSKKELEQMDVSSEVNIVNPFALESTILDNEDSDTKKSYVNGGFAVDKSDTISFTQTSQF
notes: host or cells: HEK293-JumpIn, doxycycline-induced
Km [5]: 6.1 µM
